Reference: patent US6979685B1, “Cycloalkyl amine compounds and uses thereof” (Cardiome Pharma Corp., priority 1999, dated 2005)

What was measured:
[1] = test system: cardiac arrhythmias in conscious rats subjected to coronary artery occlusion; test: Antiarrhythmic efficacy: arrhythmias induced by coronary artery occlusion in conscious rats; assay type: in vivo, rat; conditions: infusion rate which reduces the arrhythmia score to 50% of that of vehicle-treated animals
Experimental: Antiarrhythmic efficacy was assessed by investigating the effect of a compound on the incidence of cardiac arrhythmias in conscious rats subjected to coronary artery occlusion. Rats weighing 200–300 gms were subjected to preparative surgery and assigned to groups in a random block design. In each case, the animal was anesthetized with halothane during surgical preparation. The left femoral artery was cannulated for measurement of mean arterial blood pressure and withdrawal of blood samples. The left femoral vein was also cannulated for injection of drugs. The thoracic cavity was opened and a polyethylene occluder loosely placed around the left anterior descending coronary artery. The thoracic cavity was then closed. ECG was recorded by insertion of electrodes placed along the anatomical axis of the heart. All cannulae and electrode leads were exteriorized in the mid scapular region. […] ECG, arrhythmias, blood pressure, heart rate and mortality were monitored for 30 minutes after occlusion. Arrhythmias were recorded as ventricular tachycardia (VT) and ventricular fibrillation (VF) and scored according to Curtis, M. J. and Walker, M. J. A., Cardiovasc. […]
Occlusion is associated with increases in R-wave height and “S-T” segment elevation: and an occluded zone (measured after death by cardiogreen dye perfusion) in the range of 25%–50% of total left-ventricular weight. […]

[2] = test system: cardiac sodium channel blockage (left ventricle square wave stimulation); test: Assessment of sodium channel blockage by electrical stimulation of the left ventricle in rats; assay type: in vivo; conditions: infusion rate eliciting a 25% increase from control; rat left ventricle stimulation
Experimental: Rats were prepared according to the preceding procedure. Two silver stimulating electrodes were inserted through the chest wall and implanted in the left ventricle. Square wave stimulation was used to determine threshold current for capture, ventricular fibrillation threshold current, and effective refractory period (Howard, P. G. and Walker, M. J. A., Proc. West. Pharmacol. Soc. 33:123–127 (1990)). Table 5 contains ED25 values for these indices of cardiac sodium channel blockage, where the ED25 is the infusion rate in micromol/kg/minute of compound required to elicit a 25% increase from control. The increases in refractoriness indicate ancillary blockage of potassium channels. The threshold current for capture is represented by “It”. The fibrillation threshold current is represented by “VFT”. The effective refracting period is represented by “ERP”.

[3] = test system: ECG parameters (cardiac sodium channel / potassium channel blockage); test: Measurement of ECG parameters in pentobarbital anesthetized rats; assay type: in vivo, rat; conditions: bolus injection; for ED25 QT: dose producing a 25% increase in Q-T interval; for ED25 QRS: dose producing a 25% increase in QRS interval
Experimental: Rats weighing 200–250 gms were used in this example. Animals were anesthetized with 60 mg/kg pentobarbital i.p. The carotid artery and jugular vein were cannulated for measurement of blood pressure and drug injection, respectively. ECG was recorded by insertion of electrodes placed along the anatomical axis of the heart. All compounds were given as bolus injections.
Various ECG parameters were measured. Table 4 describes the results of the tests as ED25 (micromol/kg) which are the doses required to produce a 25% increase in the parameter measured (NE=not estimated). The increases in P—R interval and QRS interval indicate cardiac sodium channel blockage while the increase in Q-T interval indicates ancillary cardiac potassium channel blockage which is the property of a type 1a antiarrhythmic.

Structure (SMILES) | ED50AA [1] [µmol/kg/min] | ED25 ERP (effective refractory period) [2] [µmol/kg/min] | ED25 It (threshold current for capture) [2] [µmol/kg/min] | ED25 VFT (fibrillation threshold current) [2] [µmol/kg/min] | ED25 PR ([3]; dose producing a 25% increase in P-R interval) [µmol/kg] | ED25 QT [3] [µmol/kg] | ED25 QRS [3] [µmol/kg]
Cl.c1ccc2cc(CCOC3CCCC3N3CCOCC3)ccc2c1 [compound 1, (1R,2R)/(1S,2S)-2-(4-MORPHOLINYL)-1-(2-NAPHTHALENETHOXY)CYCLOPENTANE MONOHYDROCHLORIDE] | 1.5 | 2.5 | 3.3 | 1.3 | 45 | 2.5 | 37
Cl.O=C1CCN(C2CCCC2OCCc2c(Cl)cccc2Cl)C1 [compound 2, (1R,2R)/(1S,2S)-2-(3-KETOPYRROLIDINYL)-1-(2,6-DICHLOROPHENETHOXY)CYCLOPENTANE MONOHYDROCHLORIDE] | 4 | 2.6 | 10 |  |  | 3.3 | 9
